Experimental data from the supplement of paper PMC10307832.

Experiments:
Assay in all cases: relative viability (nuclei count vs DMSO), 5 days (fraction); higher = more cells survive
[1] = compound: C1CC2=C(C1)C=C(C=C2)OC3=NC(=C4C(=N3)N(C=N4)CC5=CC=C(C=C5)C6=CC=CC=C6)N[C@@H](CC7=CC=CC=C7)CO [QS11] + O=C(c1cc(Cc2n[nH]c(=O)c3ccccc23)ccc1F)N1CCN(C(=O)C2CC2)CC1 [Olaparib] (partner 8 µM)
Summary of the method: (§1)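 Each reported value is a median over duplicate plates. It expresses relative viability: treated-well nuclei count divided by vehicle-well nuclei count. Lung cancer cell lines in 1536-well plates were dosed by pin tool a day after seeding, alone with one drug or with a fixed anchor-drug dose plus five library-drug doses (not always all listed) in √10 steps, and nuclei were counted after 5 days.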

[2] = compound: C1CC2=C(C1)C=C(C=C2)OC3=NC(=C4C(=N3)N(C=N4)CC5=CC=C(C=C5)C6=CC=CC=C6)N[C@@H](CC7=CC=CC=C7)CO [QS11] + C[C@@H](Oc1cc(-c2cnn(C3CCNCC3)c2)cnc1N)c1c(Cl)ccc(F)c1Cl [Crizotinib] (partner 1 µM)
Summary of the method: as §1

[3] = compound: C1CC2=C(C1)C=C(C=C2)OC3=NC(=C4C(=N3)N(C=N4)CC5=CC=C(C=C5)C6=CC=CC=C6)N[C@@H](CC7=CC=CC=C7)CO [QS11] + Cc1nc(NC(=O)N2CCC[C@H]2C(N)=O)sc1-c1ccnc(C(C)(C)C(F)(F)F)c1 [Alpelisib] (partner 2 µM)
Summary of the method: as §1

[4] = compound: C1CC2=C(C1)C=C(C=C2)OC3=NC(=C4C(=N3)N(C=N4)CC5=CC=C(C=C5)C6=CC=CC=C6)N[C@@H](CC7=CC=CC=C7)CO [QS11] + C[C@]1(O)C[C@@H](c2nc(-c3ccc4ccc(-c5ccccc5)nc4c3)c3c(N)nccn32)C1 [Linsitinib] (partner 1 µM)
Summary of the method: as §1

Row | Cell Line | relative viability ([1]; first compound 0.08 µM) | relative viability ([1]; first compound 0.253 µM) | relative viability ([1]; first compound 2.53 µM) | relative viability ([1]; first compound 8 µM) | relative viability ([2]; first compound 0.08 µM) | relative viability ([2]; first compound 0.253 µM) | relative viability ([2]; first compound 2.53 µM) | relative viability ([2]; first compound 8 µM) | relative viability ([3]; first compound 0.08 µM) | relative viability ([3]; first compound 0.253 µM) | relative viability ([3]; first compound 2.53 µM) | relative viability ([3]; first compound 8 µM) | relative viability ([4]; first compound 0.08 µM) | relative viability ([4]; first compound 0.253 µM) | relative viability ([4]; first compound 2.53 µM) | relative viability ([4]; first compound 8 µM) | relative viability ([2]; first compound 0.8 µM) | relative viability ([3]; first compound 0.8 µM) | relative viability ([4]; first compound 0.8 µM) | relative viability ([1]; first compound 0.8 µM)
1 | HCC-366 | 0.41 | 0.467 | 0.452 | 0.212 | 0.565 | 0.542 | 0.292 | 0.324 | 0.55 | 0.361 | 0.296 | 0.244 | 0.696 | 0.575 | 0.355 | 0.303 | – | – | – | –
2 | LCLC-103H | 0.799 | 0.849 | 0.791 | 0.814 | 1.01 | 1.08 | 1 | 1.08 | 1.07 | 0.979 | 0.938 | 0.974 | 1.08 | 1.1 | 1.21 | 1.09 | 0.808 | 0.797 | 0.74 | –
3 | NCI-H596 | 0.724 | 0.563 | 0.606 | 0.61 | 1.03 | 0.862 | 0.991 | 1.04 | 0.4 | 0.494 | 0.468 | 0.443 | 1.04 | 1.02 | 1.1 | 1.16 | 0.963 | 0.467 | 1.01 | 0.634
4 | NCI-H1944 | 0.395 | 0.482 | 0.397 | 0.394 | 1.13 | 1.43 | 0.91 | 0.834 | 0.794 | 0.896 | 0.826 | 0.846 | 1.18 | 1.38 | 1.18 | 1.26 | – | – | – | –
5 | A549 | 0.197 | 0.339 | 0.284 | 0.574 | 0.791 | 0.773 | 0.483 | 0.522 | 0.912 | 0.757 | 0.451 | 0.215 | 0.506 | 0.558 | 0.475 | 0.885 | 0.613 | 0.691 | 0.507 | 0.37
6 | HCC-827 | 0.587 | 0.712 | 0.775 | 0.606 | 0.917 | 0.914 | 0.854 | 0.787 | 0.907 | 1.02 | 1.05 | 1.01 | 0.977 | 1.04 | 0.929 | 0.821 | 0.643 | 0.931 | 0.877 | 0.656
7 | NCI-H727 | 0.653 | 0.661 | 0.589 | 0.753 | 0.813 | 0.958 | 0.729 | 0.631 | 0.509 | 0.99 | 0.54 | 0.325 | 0.287 | 0.296 | 0.316 | 0.289 | 0.857 | 0.593 | 0.338 | 0.654
8 | NCI-H1915 | 0.227 | 0.25 | 0.259 | 0.275 | 0.926 | 1.13 | 0.824 | 0.815 | 1.06 | 1.16 | 1.06 | 0.999 | 1.05 | 1.14 | 1.16 | 1.03 | – | – | – | –
9 | NCI-H2347 | 0.55 | 0.541 | 0.519 | 0.683 | 0.683 | 0.645 | 0.501 | 0.76 | 1.11 | 1.06 | 0.918 | 1.21 | 1.04 | 0.955 | 0.712 | 1.11 | 0.671 | 0.929 | 0.777 | 0.544
10 | NCI-H647 | 0.676 | 0.523 | 0.604 | 0.664 | 1.25 | 1.3 | 0.992 | 0.706 | 1.24 | 1.25 | 1.08 | 0.862 | 1.12 | 1.21 | 1.21 | 1.23 | 0.937 | 1.02 | 1.17 | 0.541
11 | CAL-12T | 0.722 | 0.693 | 0.727 | 0.603 | 0.579 | 0.733 | 0.394 | 0.512 | 1.28 | 1.13 | 0.952 | 1.06 | 1.01 | 0.693 | 0.688 | 0.7 | 0.626 | 1.25 | 0.695 | 0.67
